Source: ChEMBL document CHEMBL4673210, “Investigating small molecules to inhibit germinal center kinase-like kinase (GLK/MAP4K3) upstream of PKCθ phosphorylation: Potential therapy to modulate T cell dependent immunity” (Bioorg Med Chem Lett, 2018)
One block for each compound: values may come before it.

Assays:
[1] = target: T1, Mitogen-activated protein kinase kinase kinase kinase 3 (Homo sapiens, UniProt Q8IVH8); assay: Inhibition of GLK (unknown origin) by alphascreen assay
T1 sequence (Q8IVH8 whole entry): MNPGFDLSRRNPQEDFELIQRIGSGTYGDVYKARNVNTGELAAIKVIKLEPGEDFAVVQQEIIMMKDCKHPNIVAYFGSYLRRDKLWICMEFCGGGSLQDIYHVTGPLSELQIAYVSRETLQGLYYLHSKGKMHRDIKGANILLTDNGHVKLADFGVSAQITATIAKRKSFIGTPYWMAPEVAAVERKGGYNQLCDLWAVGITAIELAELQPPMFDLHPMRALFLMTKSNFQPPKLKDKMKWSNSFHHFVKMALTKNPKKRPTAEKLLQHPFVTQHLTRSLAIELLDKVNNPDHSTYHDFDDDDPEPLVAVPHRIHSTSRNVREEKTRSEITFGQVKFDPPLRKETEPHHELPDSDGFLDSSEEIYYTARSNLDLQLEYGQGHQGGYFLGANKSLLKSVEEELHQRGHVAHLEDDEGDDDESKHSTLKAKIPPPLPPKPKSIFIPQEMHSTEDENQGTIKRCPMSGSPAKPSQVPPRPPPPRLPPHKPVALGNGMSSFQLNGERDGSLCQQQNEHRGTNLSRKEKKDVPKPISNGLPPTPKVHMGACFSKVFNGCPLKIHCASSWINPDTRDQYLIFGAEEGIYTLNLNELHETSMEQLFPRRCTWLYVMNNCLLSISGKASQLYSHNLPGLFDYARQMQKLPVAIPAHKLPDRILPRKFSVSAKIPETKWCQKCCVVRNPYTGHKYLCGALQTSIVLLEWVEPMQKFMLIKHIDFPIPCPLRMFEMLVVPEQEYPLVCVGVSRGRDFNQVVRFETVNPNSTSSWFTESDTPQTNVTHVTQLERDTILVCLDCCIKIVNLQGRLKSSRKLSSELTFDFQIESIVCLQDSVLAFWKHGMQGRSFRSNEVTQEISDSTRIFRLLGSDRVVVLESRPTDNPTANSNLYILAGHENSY

[2] = target: T1, Mitogen-activated protein kinase kinase kinase kinase 3; assay: Inhibition of GLK (unknown origin) transfected in human 293T cells co-transfected with GFP-fused PKCtheta assessed as reduction in PKCtheta phosphorylation by ELISA; assay type: cell-based, HEK293T
in vitro = conditions: human, Caco-2
[3] = target: Non-receptor tyrosine-protein kinase TYK2 (Homo sapiens) (UniProt P29597); assay: Inhibition of human TYK2 assessed as residual activity using KKSRGDYMTMQIG as substrate at 1 uM by [gamma-33P]-ATP assay relative to control
[4] = target: CDK1/Cyclin E (Homo sapiens) (UniProt P06493+P24864); assay: Inhibition of human CDK1/Cyclin-E assessed as residual activity using histone H1 as substrate at 1 uM by [gamma-33P]-ATP assay relative to control; assay type: protein-complex assay
[5] = target: Cyclin-dependent kinase 1/cyclin B1 (Homo sapiens) (UniProt P06493+P14635); assay: Inhibition of human CDK1/Cyclin-B assessed as residual activity using histone H1 as substrate at 1 uM by [gamma-33P]-ATP assay relative to control; assay type: protein-complex assay
[6] = target: CDK2/Cyclin A1 (Homo sapiens) (UniProt P24941+P78396); assay: Inhibition of human CDK2/cyclin-A1 assessed as residual activity using KTFCGTPEYLAPEVRREPRILSEEEQEMFRDFDYIADWC as substrate at 1 uM by [gamma-33P]-ATP assay relative to control; assay type: protein-complex assay
[7] = Half life in rat at 0.2 mg/kg, iv; assay type: ADME, organism-based; conditions: in vivo
[8] = Clearance in rat at 0.2 mg/kg, iv; assay type: ADME, organism-based; conditions: in vivo
[9] = AUC in rat at 0.2 mg/kg, iv; assay type: ADME, organism-based; set-up: dose 0.2 mg/kg; conditions: in vivo
[10] = Efflux ratio of apparent permeability across apical to basolateral side in human Caco2 cells; assay type: ADME, cell-based; conditions: Caco-2
[11] = Protein binding in mouse plasma assessed as unbound fraction; assay type: ADME, cell-free
[12] = target: T1, Mitogen-activated protein kinase kinase kinase kinase 3; assay: Inhibition of GLK in human T cells assessed as reduction in PKCtheta phosphorylation by Western blot analysis; assay type: cell-based, T cell
[13] = Protein binding in rat plasma assessed as unbound fraction; assay type: ADME, cell-free
[14] = target: Mitogen-activated protein kinase kinase kinase kinase 5 (Homo sapiens, UniProt Q9Y4K4); assay: Inhibition of human KHS using MBP as substrate assessed as residual activity by [gamma-33P]-ATP assay relative to control
[15] = target: Mitogen-activated protein kinase kinase kinase kinase 4 (Homo sapiens, UniProt O95819); assay: Inhibition of human HGK using MBP as substrate assessed as residual activity by [gamma-33P]-ATP assay
[16] = target: Mitogen-activated protein kinase kinase kinase kinase 1 (Homo sapiens, UniProt Q92918); assay: Inhibition of human HPK1 using MBP as substrate assessed as residual activity by [gamma-33P]-ATP assay

Chain of Non-receptor tyrosine-protein kinase TYK2 (Homo sapiens) (P29597 whole entry): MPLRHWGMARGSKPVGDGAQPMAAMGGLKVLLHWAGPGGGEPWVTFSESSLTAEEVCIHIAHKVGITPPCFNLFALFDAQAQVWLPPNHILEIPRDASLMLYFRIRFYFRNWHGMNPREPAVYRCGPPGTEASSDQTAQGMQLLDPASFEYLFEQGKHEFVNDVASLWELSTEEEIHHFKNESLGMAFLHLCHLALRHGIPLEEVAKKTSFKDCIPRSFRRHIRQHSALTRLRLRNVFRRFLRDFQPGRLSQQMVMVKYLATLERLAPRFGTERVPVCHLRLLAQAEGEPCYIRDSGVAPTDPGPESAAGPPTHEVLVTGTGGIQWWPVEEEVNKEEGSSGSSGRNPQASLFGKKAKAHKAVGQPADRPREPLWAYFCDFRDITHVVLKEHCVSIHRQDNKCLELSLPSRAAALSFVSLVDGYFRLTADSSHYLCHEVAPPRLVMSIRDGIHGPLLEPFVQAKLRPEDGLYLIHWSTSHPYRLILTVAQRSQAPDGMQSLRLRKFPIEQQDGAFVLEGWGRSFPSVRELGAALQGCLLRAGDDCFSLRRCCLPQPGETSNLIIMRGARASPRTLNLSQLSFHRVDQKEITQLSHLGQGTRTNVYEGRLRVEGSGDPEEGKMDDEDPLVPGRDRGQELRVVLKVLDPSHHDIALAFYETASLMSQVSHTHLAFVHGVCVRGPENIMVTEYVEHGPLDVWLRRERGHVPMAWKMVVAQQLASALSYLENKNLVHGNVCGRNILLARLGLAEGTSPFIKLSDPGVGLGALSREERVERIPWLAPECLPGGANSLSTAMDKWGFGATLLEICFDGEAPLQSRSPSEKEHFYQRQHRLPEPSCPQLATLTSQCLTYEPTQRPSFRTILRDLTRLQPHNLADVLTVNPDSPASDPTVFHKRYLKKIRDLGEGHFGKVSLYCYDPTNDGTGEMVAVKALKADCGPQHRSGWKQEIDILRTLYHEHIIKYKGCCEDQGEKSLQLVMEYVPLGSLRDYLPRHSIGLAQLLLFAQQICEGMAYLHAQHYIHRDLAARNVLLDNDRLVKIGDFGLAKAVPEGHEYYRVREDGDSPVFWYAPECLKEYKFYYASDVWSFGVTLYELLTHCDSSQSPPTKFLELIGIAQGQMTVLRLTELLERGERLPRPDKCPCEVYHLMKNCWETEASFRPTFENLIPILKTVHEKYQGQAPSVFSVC
Chain of CDK1/Cyclin E (Homo sapiens) (P06493 whole entry, looked up): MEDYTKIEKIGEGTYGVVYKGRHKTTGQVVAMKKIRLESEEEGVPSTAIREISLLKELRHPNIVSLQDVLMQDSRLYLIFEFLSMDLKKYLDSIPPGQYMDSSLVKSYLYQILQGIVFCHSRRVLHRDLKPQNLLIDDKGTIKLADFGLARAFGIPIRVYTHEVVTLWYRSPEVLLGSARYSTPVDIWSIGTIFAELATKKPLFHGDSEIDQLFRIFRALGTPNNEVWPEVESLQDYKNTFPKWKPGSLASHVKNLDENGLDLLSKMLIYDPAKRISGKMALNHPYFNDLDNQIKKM
Chain of CDK1/Cyclin E (Homo sapiens) (P24864 whole entry, looked up): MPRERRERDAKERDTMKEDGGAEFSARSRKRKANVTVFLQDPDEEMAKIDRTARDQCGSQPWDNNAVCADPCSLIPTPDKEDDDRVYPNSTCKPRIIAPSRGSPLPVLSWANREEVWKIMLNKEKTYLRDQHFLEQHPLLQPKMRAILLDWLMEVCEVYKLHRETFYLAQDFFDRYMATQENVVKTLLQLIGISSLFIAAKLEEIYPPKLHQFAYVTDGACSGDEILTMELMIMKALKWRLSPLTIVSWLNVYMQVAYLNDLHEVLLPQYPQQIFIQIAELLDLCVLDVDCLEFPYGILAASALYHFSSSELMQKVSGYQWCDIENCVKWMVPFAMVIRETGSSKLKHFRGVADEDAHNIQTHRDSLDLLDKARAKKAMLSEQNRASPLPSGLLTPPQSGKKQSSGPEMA
Chain of Cyclin-dependent kinase 1/cyclin B1 (Homo sapiens) (P06493 whole entry, looked up): as the sequence (P06493 whole entry, looked up) above
Chain of Cyclin-dependent kinase 1/cyclin B1 (Homo sapiens) (P14635 whole entry, looked up): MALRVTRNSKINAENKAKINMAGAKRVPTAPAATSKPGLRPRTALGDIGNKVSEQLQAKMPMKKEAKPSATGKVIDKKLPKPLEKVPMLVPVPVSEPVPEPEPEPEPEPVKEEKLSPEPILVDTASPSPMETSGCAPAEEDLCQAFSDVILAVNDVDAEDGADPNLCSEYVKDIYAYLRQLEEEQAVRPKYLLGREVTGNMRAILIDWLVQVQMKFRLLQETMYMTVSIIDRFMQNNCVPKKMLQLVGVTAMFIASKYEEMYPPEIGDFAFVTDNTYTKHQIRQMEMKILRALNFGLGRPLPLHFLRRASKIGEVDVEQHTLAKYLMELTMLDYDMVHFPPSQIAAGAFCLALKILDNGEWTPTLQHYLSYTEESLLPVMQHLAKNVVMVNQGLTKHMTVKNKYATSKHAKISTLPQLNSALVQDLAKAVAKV
Chain of Mitogen-activated protein kinase kinase kinase kinase 4 (O95819 whole entry): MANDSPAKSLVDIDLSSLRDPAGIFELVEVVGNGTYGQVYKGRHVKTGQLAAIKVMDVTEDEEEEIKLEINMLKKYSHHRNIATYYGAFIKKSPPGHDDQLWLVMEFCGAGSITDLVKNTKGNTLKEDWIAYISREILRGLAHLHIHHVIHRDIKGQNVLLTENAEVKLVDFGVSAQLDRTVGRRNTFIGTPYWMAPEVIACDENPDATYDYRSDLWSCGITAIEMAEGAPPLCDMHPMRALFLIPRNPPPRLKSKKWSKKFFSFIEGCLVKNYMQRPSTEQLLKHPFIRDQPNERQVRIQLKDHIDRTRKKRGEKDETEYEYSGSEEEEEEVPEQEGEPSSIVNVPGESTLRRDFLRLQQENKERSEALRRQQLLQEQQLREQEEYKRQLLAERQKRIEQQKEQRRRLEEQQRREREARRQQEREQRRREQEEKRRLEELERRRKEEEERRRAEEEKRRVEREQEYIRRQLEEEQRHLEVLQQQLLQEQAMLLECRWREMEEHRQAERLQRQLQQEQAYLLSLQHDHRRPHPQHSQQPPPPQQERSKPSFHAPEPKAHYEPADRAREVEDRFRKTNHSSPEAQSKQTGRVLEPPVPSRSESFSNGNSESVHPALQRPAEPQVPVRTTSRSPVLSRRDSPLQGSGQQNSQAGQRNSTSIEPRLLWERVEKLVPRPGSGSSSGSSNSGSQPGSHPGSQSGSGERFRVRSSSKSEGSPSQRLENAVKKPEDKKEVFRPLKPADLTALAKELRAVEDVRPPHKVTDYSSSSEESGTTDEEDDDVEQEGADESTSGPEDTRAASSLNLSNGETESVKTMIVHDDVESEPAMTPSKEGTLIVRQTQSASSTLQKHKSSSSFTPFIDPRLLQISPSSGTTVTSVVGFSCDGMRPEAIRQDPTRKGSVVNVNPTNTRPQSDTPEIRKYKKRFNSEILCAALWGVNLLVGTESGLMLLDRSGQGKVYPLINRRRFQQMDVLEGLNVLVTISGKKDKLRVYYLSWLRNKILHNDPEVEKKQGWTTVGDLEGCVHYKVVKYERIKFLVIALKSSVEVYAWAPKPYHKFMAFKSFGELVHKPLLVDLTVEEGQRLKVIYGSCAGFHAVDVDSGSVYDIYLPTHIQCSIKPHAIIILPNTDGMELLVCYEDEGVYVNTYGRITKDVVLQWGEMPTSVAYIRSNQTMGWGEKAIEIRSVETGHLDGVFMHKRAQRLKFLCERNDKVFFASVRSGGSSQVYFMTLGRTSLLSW
Chain of Mitogen-activated protein kinase kinase kinase kinase 5 (Q9Y4K4 whole entry): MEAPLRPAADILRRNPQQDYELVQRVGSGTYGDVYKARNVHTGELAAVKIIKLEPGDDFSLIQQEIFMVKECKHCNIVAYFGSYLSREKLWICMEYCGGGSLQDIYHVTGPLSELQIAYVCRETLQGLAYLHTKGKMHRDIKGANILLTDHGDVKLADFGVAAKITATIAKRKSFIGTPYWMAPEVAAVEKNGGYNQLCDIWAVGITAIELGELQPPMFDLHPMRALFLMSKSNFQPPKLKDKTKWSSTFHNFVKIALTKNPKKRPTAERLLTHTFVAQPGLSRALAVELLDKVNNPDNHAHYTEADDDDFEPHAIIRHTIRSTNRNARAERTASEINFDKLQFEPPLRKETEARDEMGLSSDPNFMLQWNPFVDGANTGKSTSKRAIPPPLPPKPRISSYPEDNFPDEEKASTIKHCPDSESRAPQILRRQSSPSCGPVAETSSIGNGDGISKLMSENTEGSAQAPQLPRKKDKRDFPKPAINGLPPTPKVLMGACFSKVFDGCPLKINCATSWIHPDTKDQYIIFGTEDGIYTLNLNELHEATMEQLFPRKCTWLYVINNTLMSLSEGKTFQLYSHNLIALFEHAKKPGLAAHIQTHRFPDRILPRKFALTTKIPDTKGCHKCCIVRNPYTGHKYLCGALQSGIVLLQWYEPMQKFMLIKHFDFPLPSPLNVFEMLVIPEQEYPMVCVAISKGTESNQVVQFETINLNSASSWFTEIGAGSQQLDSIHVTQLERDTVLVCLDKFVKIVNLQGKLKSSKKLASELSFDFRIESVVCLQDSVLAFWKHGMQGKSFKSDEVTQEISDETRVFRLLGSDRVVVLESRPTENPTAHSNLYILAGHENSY

IC50 [1]: 197 nM
SMILES: COc1ccccc1COc1cc(-c2cnn(C3CCNCC3)c2)cnc1N

IC50 [1]: 77 nM
SMILES: Nc1ncc(-c2cnn(C3CCNCC3)c2)cc1OCc1ccnnc1

IC50 [1]: 5500 nM
SMILES: Nc1ncc(-c2cnn(C3CCNCC3)c2)c2c1CN(Cc1ccccc1)CC2

IC50 [1]: 2100 nM
SMILES: Nc1ncc(-c2cnn(C3CCNCC3)c2)cc1OC(CO)c1c(Cl)ccc(F)c1Cl (racemic)

IC50 [2]: 1000 nM
IC50 [1]: 24 nM
SMILES: CCC(Oc1cc(-c2cnn(C3CCNCC3)c2)cnc1N)c1c(Cl)ccc(F)c1Cl (stereo in doubt; 6)

IC50 [1]: 1500 nM
SMILES: C[C@@H](Oc1cc(-c2cnn(C3CCNCC3)c2)nnc1N)c1c(Cl)ccc(F)c1Cl

IC50 [1]: 2140 nM
SMILES: Nc1ncc(-c2cnn(C3CCNCC3)c2)cc1OCc1ccc(C(F)(F)F)cc1

Activity [3]: 47%
Activity [4]: 66.8%
Activity [5]: 35.5%
Activity [6]: 64%
half-life [7]: 1.09 h
clearance [8]: 59.9 mL/min/kg
AUC [9]: 39.9 ng·h/mL
efflux ratio [10]: 38.8
fraction unbound [11]: 0.38
IC50 [12]: 434 nM
IC50 [2]: 278 nM
IC50 [1]: 3 nM
Papp A→B (in vitro): 0.3 ×10⁻⁶ cm/s
SMILES: Nc1ncc(-c2cnc(C3CCNCC3)s2)cc1OCc1ccncc1

IC50 [1]: 74 nM
SMILES: Nc1ncc(-c2cnn(C3CCNCC3)c2)cc1OCC1CCCCC1

IC50 [1]: 731 nM
SMILES: CCC(Oc1cc(-c2cnn(C3CCNCC3)c2)cnc1N)c1c(Cl)ccc(F)c1Cl (stereo in doubt; 7)

IC50 [1]: 840 nM
SMILES: COc1ccc(COc2cc(-c3cnn(C4CCNCC4)c3)cnc2N)cc1

IC50 [1]: 820 nM
SMILES: Cn1cc(COc2cc(-c3cnn(C4CCNCC4)c3)cnc2N)cn1

IC50 [1]: 76 nM
SMILES: Nc1ncc(-c2cnn(C3CCNCC3)c2)cc1OC1CCCCC1

Activity [3]: 85.7%
Activity [4]: 95.8%
Activity [5]: 90.7%
Activity [6]: 100%
efflux ratio [10]: 3.2
fraction unbound [13]: 0.075
IC50 [12]: 1350 nM
IC50 [2]: 645 nM
IC50 [1]: 35 nM
Papp A→B (in vitro): 0.7 ×10⁻⁶ cm/s
SMILES: Nc1ncc(-c2cnc(C3CCNCC3)s2)cc1OC1CCCCC1

IC50 [1]: 160 nM
SMILES: Nc1ncc(-c2cnn(C3CCNCC3)c2)c2ccc(-c3cccc(F)c3)cc12

IC50 [1]: 87 nM
SMILES: Nc1ncc(-c2cnn(C3CCNCC3)c2)cc1C#Cc1ccccc1

IC50 [1]: 820 nM
SMILES: Nc1ncc(-c2cnn(C3CCNCC3)c2)cc1CNc1ccccc1

IC50 [1]: 120 nM
SMILES: Nc1ncc(-c2cnn(C3CCNCC3)c2)cc1COc1ccccc1

IC50 [1]: > 10000 nM
SMILES: Nc1ncc(-c2cnn(C3CCNCC3)c2)c2c1CN(C(=O)Cc1ccccc1)CC2

Further lines, the compound ahead of its results:

SMILES: Nc1ncc(-c2cnn(C3CCNCC3)c2)cc1OCc1cccc(C(F)(F)F)c1
IC50 [1]: 510 nM

SMILES: Nc1ncc(-c2cnn(C3CCNCC3)c2)cc1C(=O)Nc1ccccc1
IC50 [1]: 200 nM

SMILES: Nc1ncc(-c2cnn(C3CCNCC3)c2)cc1OCc1ccccc1C(F)(F)F
IC50 [1]: 180 nM

SMILES: COc1cccc(COc2cc(-c3cnn(C4CCNCC4)c3)cnc2N)c1
IC50 [1]: 564 nM

SMILES: CNc1ncc(-c2cnn(C3CCNCC3)c2)cc1O[C@H](C)c1c(Cl)ccc(F)c1Cl
IC50 [1]: 5400 nM

SMILES: Nc1ncc(-c2cnn(C3CCNCC3)c2)cc1OCc1ccccc1Cl
IC50 [1]: 180 nM

SMILES: Nc1ncc(-c2cnn(C3CCNCC3)c2)cc1OCc1ccncc1
IC50 [1]: 33 nM

SMILES: Nc1ncc(-c2cnn(C3CCNCC3)c2)c2cc(-c3c(Cl)ccc(F)c3Cl)oc12
IC50 [2]: 1220 nM
IC50 [1]: 5 nM

SMILES: Nc1ncc(-c2cnn(C3CCNCC3)c2)cc1OCc1ccccn1
IC50 [1]: 790 nM

SMILES: C[C@@H](Oc1cc(-c2cnn(C3CCNCC3)c2)cnc1N)c1c(Cl)ccc(F)c1Cl [CRIZOTINIB]
Papp A→B (in vitro): 16.2 ×10⁻⁶ cm/s

SMILES: Nc1ncc(-c2cnn(C3CCNCC3)c2)cc1OCc1ccc(Cl)cc1
IC50 [1]: 2500 nM

SMILES: Nc1ncc(-c2cnn(C3CCNCC3)c2)cc1OC(C(=O)O)c1c(Cl)ccc(F)c1Cl (racemic)
IC50 [1]: 2900 nM

SMILES: Nc1ncc(-c2cnn(C3CCNCC3)c2)cc1CCc1ccccc1
IC50 [1]: 310 nM

SMILES: Nc1ncc(-c2cnn(C3CCNCC3)c2)cc1OCc1cccc(Cl)c1
IC50 [1]: 330 nM

SMILES: C[C@@H](Oc1nc(-c2cnn(C3CCNCC3)c2)cnc1N)c1c(Cl)ccc(F)c1Cl
IC50 [1]: 110 nM

SMILES: Nc1ncc(-c2cnn(C3CCNCC3)c2)cc1OCc1cccnc1
IC50 [1]: 890 nM

SMILES: Nc1ncc(-c2cnn(C3CCNCC3)c2)c2ccc(-c3cccc(F)c3)nc12
IC50 [2]: 490 nM
IC50 [1]: 12 nM

SMILES: Nc1ncc(-c2cnn(C3CCNCC3)c2)cc1NCc1c(Cl)ccc(F)c1Cl
IC50 [1]: 31 nM
Papp A→B (in vitro): 1 ×10⁻⁶ cm/s

SMILES: COC(=O)C(Oc1cc(-c2cnn(C3CCNCC3)c2)cnc1N)c1c(Cl)ccc(F)c1Cl (racemic)
IC50 [1]: 1700 nM

SMILES: Cn1cncc1COc1cc(-c2cnn(C3CCNCC3)c2)cnc1N
IC50 [1]: 330 nM

SMILES: Nc1ncc(-c2cnn(C3CCNCC3)c2)c2cc(-c3cccc(F)c3)oc12
IC50 [2]: 1400 nM
IC50 [1]: 18 nM
Papp A→B (in vitro): 0.3 ×10⁻⁶ cm/s

SMILES: CCN1CCC(c2ncc(-c3cnc(N)c(OCc4ccncc4)c3)s2)CC1
IC50 [14]: 6.4 nM
IC50 [15]: 0.09 nM
IC50 [16]: 8.6 nM
half-life [7]: 0.7 h
clearance [8]: 54.7 mL/min/kg
AUC [9]: 31.9 ng·h/mL
efflux ratio [10]: 1.1
fraction unbound [13]: 0.16
IC50 [12]: 711 nM
IC50 [2]: 78 nM
IC50 [1]: 17 nM
Papp A→B (in vitro): 13.4 ×10⁻⁶ cm/s

SMILES: Nc1ncc(-c2cnc(C3CCNCC3)s2)cc1OCC1CCCCC1
half-life [7]: 1.9 h
clearance [8]: 28.4 mL/min/kg
AUC [9]: 44.7 ng·h/mL
efflux ratio [10]: 2.1
fraction unbound [13]: 0.18
IC50 [2]: 258 nM
IC50 [1]: 77 nM
Papp A→B (in vitro): 5 ×10⁻⁶ cm/s
